# Source: US20260240760A1, “Injectable Compositions of Vitamers of Vitamin B12 and Uses Thereof” (Nevakar Injectables Inc., priority 2023, published 2026)
# What was measured:
# [1] = Cyanocobalamin concentration and appearance of polymer/DMSO compositions and stock solutions, with or without pamoic acid; format: physicochemical; conditions: pamoic acid present relative to not present
# Method: Compositions comprising 25% polymer and cyanocobalamin either with or without pamoic acid (i.e., to form a cyanocobalamin pamoate salt) in 100% DMSO were prepared starting from 12 mg/g stock solutions, as shown in Tables 2 and 3.
# [2] = within 48 hours of injection; current standard-of-care injectable compositions; cited from earlier work
Dissolution of cyanocobalamin in compositions comprising poly(lactide-co-glycolide) and DMSO [1],Substance,vitamin B12 excreted in urine [2]
dissolves significantly more effectively,cyanocobalamin pamoate,
,vitamin B12,≤ 98%
